{"source": "ChEMBL document CHEMBL1201862", "about": "“PubChem BioAssay data set” (2004)", "key": {"[1]": {"molecular_target": "T1, Voltage-gated N-type calcium channel alpha-1B subunit/Amyloid beta A4 precursor protein-binding family A member 1 (Homo sapiens, UniProt Q00975+Q02410)", "T1 sequence (Q00975 whole entry)": "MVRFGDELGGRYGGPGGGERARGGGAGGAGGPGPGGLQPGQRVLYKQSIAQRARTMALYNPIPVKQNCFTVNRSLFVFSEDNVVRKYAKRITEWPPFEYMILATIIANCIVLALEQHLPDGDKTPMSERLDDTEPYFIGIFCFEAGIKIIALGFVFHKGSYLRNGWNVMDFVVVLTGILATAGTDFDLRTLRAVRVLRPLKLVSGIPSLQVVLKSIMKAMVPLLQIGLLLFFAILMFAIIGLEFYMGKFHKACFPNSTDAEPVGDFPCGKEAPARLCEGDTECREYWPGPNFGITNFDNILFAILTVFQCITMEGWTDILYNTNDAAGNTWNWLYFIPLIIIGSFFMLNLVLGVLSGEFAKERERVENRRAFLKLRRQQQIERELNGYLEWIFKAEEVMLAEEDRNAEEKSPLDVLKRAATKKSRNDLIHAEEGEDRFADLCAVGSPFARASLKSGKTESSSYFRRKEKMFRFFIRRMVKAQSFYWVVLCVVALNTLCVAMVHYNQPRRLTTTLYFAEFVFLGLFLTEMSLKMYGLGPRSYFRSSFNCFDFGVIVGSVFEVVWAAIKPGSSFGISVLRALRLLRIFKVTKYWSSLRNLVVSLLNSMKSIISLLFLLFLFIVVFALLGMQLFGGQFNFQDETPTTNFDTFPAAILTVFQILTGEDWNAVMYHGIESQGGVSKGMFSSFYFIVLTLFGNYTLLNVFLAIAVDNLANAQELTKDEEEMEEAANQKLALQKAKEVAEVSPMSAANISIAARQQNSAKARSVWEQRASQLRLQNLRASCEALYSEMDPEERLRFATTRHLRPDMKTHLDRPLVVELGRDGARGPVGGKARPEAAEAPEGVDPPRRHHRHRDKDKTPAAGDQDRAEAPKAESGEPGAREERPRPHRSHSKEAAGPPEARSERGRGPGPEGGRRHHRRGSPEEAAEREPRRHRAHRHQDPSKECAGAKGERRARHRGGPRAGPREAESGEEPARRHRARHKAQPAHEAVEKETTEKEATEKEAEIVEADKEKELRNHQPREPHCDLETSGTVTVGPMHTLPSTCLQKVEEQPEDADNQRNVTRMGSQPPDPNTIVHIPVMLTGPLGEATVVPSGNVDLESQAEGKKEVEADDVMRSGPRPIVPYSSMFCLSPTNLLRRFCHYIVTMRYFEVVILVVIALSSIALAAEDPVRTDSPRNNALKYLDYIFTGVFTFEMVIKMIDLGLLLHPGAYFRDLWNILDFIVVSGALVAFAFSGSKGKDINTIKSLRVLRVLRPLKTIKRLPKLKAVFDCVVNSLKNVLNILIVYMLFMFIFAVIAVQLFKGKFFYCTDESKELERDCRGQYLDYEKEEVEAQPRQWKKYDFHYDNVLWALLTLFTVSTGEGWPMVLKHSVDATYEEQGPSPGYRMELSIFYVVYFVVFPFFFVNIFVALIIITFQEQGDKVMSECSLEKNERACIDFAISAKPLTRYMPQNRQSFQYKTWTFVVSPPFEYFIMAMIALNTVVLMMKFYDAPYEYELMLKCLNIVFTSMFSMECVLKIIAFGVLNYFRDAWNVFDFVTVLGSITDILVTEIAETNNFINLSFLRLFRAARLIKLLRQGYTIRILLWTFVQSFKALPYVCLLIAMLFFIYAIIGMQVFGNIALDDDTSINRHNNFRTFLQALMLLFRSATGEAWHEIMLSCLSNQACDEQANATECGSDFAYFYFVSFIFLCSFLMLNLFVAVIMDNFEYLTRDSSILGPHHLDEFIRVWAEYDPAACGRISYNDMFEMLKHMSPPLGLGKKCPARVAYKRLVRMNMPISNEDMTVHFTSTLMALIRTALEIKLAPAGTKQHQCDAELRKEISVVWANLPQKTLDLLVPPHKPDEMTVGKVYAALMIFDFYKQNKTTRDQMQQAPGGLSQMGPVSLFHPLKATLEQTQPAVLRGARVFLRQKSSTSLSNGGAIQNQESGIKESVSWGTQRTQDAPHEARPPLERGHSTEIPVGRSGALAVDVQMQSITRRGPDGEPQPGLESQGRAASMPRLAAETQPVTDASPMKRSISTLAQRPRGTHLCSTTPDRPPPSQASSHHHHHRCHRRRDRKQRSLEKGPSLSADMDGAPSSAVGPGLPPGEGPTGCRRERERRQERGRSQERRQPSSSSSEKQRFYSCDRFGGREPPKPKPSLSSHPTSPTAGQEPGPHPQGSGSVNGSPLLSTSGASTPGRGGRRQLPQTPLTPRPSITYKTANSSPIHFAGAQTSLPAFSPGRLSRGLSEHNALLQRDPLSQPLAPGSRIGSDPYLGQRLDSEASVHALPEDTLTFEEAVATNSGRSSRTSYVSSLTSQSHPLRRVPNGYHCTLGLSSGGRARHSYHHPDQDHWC", "T1 sequence (Q02410 whole entry)": "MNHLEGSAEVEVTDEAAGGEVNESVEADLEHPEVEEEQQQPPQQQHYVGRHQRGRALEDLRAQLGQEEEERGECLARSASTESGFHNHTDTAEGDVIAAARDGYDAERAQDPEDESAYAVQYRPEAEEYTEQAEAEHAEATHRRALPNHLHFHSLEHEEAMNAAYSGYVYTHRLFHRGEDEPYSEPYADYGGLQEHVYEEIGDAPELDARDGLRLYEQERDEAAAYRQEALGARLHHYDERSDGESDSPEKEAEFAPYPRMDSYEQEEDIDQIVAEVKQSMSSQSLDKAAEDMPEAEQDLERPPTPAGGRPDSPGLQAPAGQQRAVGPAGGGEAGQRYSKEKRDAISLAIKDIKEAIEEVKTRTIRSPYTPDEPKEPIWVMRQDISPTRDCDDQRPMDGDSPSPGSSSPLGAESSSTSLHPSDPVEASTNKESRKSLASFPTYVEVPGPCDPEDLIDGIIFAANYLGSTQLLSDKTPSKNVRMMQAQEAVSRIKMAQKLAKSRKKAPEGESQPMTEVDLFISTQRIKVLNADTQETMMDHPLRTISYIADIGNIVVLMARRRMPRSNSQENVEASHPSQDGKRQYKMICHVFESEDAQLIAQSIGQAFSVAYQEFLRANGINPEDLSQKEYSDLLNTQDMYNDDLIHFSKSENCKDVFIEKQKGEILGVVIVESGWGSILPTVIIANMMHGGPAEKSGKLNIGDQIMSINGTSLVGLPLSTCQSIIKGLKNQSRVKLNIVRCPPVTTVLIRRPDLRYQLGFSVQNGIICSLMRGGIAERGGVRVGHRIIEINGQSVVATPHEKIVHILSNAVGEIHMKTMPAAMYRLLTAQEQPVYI", "assay_type": "protein assay"}, "[2]": {"molecular_target": "Eukaryotic translation initiation factor 4E (Mus musculus, UniProt P63073)", "sequence (P63073 whole entry)": "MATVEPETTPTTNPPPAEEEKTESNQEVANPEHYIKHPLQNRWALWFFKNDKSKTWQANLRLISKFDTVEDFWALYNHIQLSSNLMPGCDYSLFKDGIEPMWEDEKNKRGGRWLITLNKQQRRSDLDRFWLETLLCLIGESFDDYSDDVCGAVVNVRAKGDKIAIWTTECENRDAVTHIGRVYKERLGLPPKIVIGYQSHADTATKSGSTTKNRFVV", "test": "blockers of eIF4G binding by eIF4E – biochemical, TR-FRET, dose response (AID 855);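 note: potency for disrupting eIF4E binding to eIF4GI seen as loss of FRET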", "assay_type": "functional"}, "[3]": {"molecular_target": "T2, Mannose-6-phosphate isomerase (Homo sapiens, UniProt P34949)", "T2 sequence (P34949 whole entry)": "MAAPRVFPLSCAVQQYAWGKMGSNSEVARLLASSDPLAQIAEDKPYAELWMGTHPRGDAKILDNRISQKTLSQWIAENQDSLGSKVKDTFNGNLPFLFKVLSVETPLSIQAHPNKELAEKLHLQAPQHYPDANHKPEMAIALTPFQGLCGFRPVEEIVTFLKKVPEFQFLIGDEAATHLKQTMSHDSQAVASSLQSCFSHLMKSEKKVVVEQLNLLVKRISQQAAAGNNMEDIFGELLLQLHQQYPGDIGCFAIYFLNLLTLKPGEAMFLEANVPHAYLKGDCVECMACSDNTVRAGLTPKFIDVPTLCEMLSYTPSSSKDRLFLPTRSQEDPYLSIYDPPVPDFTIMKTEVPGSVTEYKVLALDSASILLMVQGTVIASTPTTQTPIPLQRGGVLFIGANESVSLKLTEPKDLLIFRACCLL", "test": "phosphomannose isomerase inhibition – biochemical, fluorescence intensity, confirmation (AID 1535)"}, "[4]": {"molecular_target": "T1, Voltage-gated N-type calcium channel alpha-1B subunit/Amyloid beta A4 precursor protein-binding family A member 1", "assay_type": "protein assay", "remark": "listed apart in the source"}, "[5]": {"molecular_target": "Phosphomannomutase 2 (Homo sapiens, UniProt O15305)", "sequence (O15305 whole entry)": "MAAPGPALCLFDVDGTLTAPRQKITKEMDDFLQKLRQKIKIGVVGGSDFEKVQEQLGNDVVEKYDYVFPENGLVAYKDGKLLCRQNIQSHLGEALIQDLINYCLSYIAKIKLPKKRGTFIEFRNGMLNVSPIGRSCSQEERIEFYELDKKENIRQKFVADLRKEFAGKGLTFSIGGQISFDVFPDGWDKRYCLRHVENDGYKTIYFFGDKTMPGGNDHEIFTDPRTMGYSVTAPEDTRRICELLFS", "test": "Counter screen SAR assay for PMM2 inhibitors via a fluorescence intensity assay. [Related pubchem assays (depositor defined):AID1545, AID1574]"}, "[6]": {"molecular_target": "Voltage-gated inwardly rectifying potassium channel KCNH2 (Homo sapiens, UniProt Q12809)", "sequence (Q12809 whole entry)": "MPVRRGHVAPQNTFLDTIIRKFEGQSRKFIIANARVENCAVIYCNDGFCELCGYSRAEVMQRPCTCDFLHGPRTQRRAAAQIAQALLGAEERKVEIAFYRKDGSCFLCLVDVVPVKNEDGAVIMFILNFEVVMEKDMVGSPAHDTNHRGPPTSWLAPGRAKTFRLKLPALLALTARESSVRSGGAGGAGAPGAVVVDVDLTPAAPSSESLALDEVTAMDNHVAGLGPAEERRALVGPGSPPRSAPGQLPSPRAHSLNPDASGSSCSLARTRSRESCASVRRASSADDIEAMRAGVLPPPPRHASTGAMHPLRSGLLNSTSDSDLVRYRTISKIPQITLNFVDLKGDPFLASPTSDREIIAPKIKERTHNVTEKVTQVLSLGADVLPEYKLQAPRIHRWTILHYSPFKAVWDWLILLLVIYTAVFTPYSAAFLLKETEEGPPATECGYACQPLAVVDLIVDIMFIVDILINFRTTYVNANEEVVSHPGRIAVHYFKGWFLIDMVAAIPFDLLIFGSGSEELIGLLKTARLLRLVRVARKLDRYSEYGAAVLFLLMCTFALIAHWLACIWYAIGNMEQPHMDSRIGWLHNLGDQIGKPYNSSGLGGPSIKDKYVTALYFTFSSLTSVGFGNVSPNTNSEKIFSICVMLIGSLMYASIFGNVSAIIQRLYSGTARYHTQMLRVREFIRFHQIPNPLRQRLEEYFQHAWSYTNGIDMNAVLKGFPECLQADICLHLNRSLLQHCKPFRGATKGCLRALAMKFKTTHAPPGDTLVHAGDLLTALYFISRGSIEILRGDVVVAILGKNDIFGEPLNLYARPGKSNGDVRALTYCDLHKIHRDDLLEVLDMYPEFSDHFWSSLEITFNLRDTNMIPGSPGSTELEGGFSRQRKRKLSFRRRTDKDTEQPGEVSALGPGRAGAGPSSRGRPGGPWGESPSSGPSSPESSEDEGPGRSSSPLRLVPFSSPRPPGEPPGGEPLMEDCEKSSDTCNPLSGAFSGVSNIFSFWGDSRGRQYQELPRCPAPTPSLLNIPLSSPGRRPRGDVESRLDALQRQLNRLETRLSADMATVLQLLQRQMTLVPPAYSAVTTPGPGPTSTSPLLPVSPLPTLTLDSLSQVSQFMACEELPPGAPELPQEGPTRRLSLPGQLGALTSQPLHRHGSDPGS", "settings": "Potency"}, "[7]": {"molecular_target": "Cytochrome P450 3A4 (Homo sapiens, UniProt P08684)", "settings": "Potency"}, "[8]": {"molecular_target": "T3, Tyrosine-protein phosphatase non-receptor type 22 (Homo sapiens, UniProt Q9Y2R2)", "T3 sequence (Q9Y2R2 whole entry)": "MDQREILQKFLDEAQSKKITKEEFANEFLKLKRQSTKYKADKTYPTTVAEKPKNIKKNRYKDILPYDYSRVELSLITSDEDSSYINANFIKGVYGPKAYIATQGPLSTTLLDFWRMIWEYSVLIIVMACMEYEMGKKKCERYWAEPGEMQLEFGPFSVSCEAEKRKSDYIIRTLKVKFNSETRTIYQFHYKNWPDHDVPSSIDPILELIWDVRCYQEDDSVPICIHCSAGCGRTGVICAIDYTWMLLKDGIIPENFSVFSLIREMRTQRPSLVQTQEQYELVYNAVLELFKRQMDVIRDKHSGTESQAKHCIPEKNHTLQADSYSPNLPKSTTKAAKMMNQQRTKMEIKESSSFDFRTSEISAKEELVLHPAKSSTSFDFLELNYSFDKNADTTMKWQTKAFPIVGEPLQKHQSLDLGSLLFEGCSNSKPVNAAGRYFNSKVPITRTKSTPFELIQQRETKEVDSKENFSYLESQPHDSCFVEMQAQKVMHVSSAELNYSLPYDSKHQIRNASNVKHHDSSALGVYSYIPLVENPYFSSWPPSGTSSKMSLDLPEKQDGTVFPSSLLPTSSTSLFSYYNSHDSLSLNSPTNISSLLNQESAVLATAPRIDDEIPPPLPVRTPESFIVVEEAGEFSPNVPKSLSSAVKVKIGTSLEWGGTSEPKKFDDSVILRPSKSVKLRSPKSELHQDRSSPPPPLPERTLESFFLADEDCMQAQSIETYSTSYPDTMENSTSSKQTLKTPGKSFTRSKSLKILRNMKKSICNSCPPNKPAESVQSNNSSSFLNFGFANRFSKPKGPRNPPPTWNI", "assay_type": "functional"}, "[9]": {"molecular_target": "T3, Tyrosine-protein phosphatase non-receptor type 22", "assay_type": "functional", "remark": "listed apart in the source"}, "[10]": {"molecular_target": "T4, Tyrosine-protein phosphatase non-receptor type 7 (Homo sapiens, UniProt P35236)", "T4 sequence (P35236 whole entry)": "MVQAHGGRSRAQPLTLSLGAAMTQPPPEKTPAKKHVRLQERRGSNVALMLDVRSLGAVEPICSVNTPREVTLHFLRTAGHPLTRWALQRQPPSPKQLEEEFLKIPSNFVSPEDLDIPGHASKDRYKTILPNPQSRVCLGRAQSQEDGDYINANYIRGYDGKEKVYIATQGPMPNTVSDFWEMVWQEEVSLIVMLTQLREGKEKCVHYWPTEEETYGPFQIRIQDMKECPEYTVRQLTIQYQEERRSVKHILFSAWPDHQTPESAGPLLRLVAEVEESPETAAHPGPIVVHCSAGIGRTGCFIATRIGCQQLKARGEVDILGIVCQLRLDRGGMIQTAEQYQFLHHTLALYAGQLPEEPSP", "assay_type": "functional"}, "[11]": {"molecular_target": "T5, Streptokinase A (Streptococcus pyogenes serotype M1, UniProt P10520)", "T5 sequence (P10520 whole entry)": "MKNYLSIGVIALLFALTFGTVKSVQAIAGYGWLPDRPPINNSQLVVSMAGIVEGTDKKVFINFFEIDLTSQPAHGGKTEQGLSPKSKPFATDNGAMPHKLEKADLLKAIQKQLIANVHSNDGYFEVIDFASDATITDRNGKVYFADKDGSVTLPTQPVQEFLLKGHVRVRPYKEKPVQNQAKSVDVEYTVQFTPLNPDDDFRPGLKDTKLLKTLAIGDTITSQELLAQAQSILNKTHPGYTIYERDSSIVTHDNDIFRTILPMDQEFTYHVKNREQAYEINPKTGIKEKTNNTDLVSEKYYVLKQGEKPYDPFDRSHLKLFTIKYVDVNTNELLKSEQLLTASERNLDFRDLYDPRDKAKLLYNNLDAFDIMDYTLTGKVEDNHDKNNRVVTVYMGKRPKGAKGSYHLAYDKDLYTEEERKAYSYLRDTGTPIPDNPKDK", "test": "viability-normalized secreted streptokinase activity reduction – plasminogen activation absorbance, OD405, dose response (AID 1914)", "assay_type": "functional, Streptococcus pyogenes M1 GAS"}, "[12]": {"test_system": "Escherichia coli", "test": "microbe, parasite or virus in culture"}, "[13]": {"molecular_target": "T6, Heat shock factor protein 1 (Mus musculus, UniProt P38532)", "T6 sequence (P38532 whole entry)": "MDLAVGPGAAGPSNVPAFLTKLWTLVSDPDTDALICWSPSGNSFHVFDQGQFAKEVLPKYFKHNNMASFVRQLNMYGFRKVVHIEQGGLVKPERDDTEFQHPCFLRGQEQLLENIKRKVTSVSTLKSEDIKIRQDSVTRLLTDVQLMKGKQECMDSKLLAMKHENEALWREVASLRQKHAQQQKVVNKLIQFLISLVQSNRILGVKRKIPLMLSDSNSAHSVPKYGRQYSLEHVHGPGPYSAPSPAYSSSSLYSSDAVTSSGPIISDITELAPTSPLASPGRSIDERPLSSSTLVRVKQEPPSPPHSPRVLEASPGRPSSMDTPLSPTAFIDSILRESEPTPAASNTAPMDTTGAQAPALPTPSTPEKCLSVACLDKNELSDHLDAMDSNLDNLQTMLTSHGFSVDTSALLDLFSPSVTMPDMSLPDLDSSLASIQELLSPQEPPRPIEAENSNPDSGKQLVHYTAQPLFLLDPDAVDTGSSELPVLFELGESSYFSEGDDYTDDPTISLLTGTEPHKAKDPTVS", "test": "decrease of HSF1-responsive luciferase luminescence – cell-based, NIH3T3, dose retest, confirmation (AID 2382);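 note: NIH3T3 fibroblasts with HSF1-driven luciferase reporter stressed by proteasome inhibitor MG132; luminescence from HSF1-driven luciferase expression after 8 hours of MG132 stress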", "assay_type": "functional"}, "[14]": {"test_system": "Streptococcus", "test": "GAS UMAA2166 growth inhibition – luminescence, BacTiterGlo, counter-screen for streptokinase expression inhibitor project, dose response (AID 1915)", "assay_type": "functional, organism-based"}, "[15]": {"test_system": "Streptococcus sp. 'group A'", "test": "Streptococcus pyogenes SK(-)GAS viability under kanamycin – luminescence, BacTiterGlo, confirmation, counter-screen for streptokinase expression inhibitor project, dose response (AID 1900)", "assay_type": "functional, organism-based"}, "[16]": {"molecular_target": "Lysine-specific demethylase 4A (Homo sapiens, UniProt O75164)", "test": "inhibition of JMJD2A H3K9me3 demethylation – biochemical, DELFIA europium, cherry-picked samples, selectivity assay for GASC-1 inhibitor project, dose response (AID 488840)"}}, "note": "Calls of active or inactive are those of the source.", "data": [{"molecule": "Clc1nss/c1=N\\c1ccccc1", "values": [{"measurement": "IC50", "setting": "[1]", "value": "8.44 µM (active)"}, {"measurement": "IC50", "setting": "[2]", "value": "50 µM (inactive)"}, {"measurement": "IC50", "setting": "[3]", "value": "15.7 µM (active)"}, {"measurement": "IC50", "setting": "[4]", "value": "8.07 µM (active)"}, {"measurement": "IC50", "setting": "[5]", "value": "> 100 µM (inactive)"}]}, {"molecule": "CC(C)(c1ccccc1)c1ccc(O)cc1", "values": [{"measurement": "AC50", "setting": "[6]", "value": "28.2 µM (inconclusive)"}, {"measurement": "AC50", "setting": "[7]", "value": "20 µM (inconclusive)"}]}, {"molecule": "C/C(=N\\NC(=O)c1c(-c2ccccc2Cl)noc1C)c1cccc(NC(=O)C(C)C)c1", "values": [{"measurement": "IC50", "setting": "[8]", "value": "> 79.4 µM (inactive)"}, {"measurement": "IC50", "setting": "[9]", "value": "> 79.4 µM (inactive)"}, {"measurement": "IC50", "setting": "[10]", "value": "> 79.4 µM (inactive)"}]}, {"molecule": "O=[N+]([O-])c1cc([N+](=O)[O-])c2ccccc2c1", "values": [{"measurement": "AC50", "setting": "[6]", "value": "15.8 µM (inconclusive)"}]}, {"molecule": "N#Cc1nc(-c2ccccc2Cl)oc1N1CCN(C(=O)c2ccco2)CC1", "values": [{"measurement": "EC50", "setting": "[11]", "value": "> 150 µM (not active)"}, {"measurement": "AC50", "setting": "[12]", "value": "23.9 µM (active)"}, {"measurement": "EC50", "setting": "[13]", "value": "> 195 µM (not active)"}, {"measurement": "EC50", "setting": "[14]", "value": "> 150 µM (not active)"}, {"measurement": "EC50", "setting": "[15]", "value": "> 150 µM (not active)"}]}, {"molecule": "Cc1ccccc1Cn1c2ccccc2c2cnnc(O)c21", "values": [{"measurement": "AC50", "setting": "[16]", "value": "30.2 µM (active)"}]}, {"molecule": "O=[N+]([O-])c1ccc(/N=c2\\ssnc2Cl)cc1", "values": [{"measurement": "IC50", "setting": "[3]", "value": "23 µM (active)"}, {"measurement": "IC50", "setting": "[5]", "value": "> 100 µM (inactive)"}]}]}
